Laboratory results: ChEMBL document CHEMBL2040772, “Tri-substituted acylhydrazines as tertiary amide bioisosteres: HCV NS5B polymerase inhibitors” (Bioorg Med Chem Lett, 2012)

Legend:
Hepatitis C virus [1] = test: Binding affinity to HCV1b C-terminally truncated NS5B Cdelta21 RNA dependent RNA polymerase expressed in Escherichia coli by surface plasmon resonance assay; set-up: species or system Hepatitis C virus subtype 1b
[2] = Cytotoxicity against human HuH7 cells after 3 days by measuring conversion of nonfluorescent calcein-AM into fluorescent calcein; format: cell-based, Huh-7
Hepatitis C virus [3] = test: Antiviral activity against HCV1b infected in human Huh-7 cells after 3 days by renilla luciferase activity based replicon assay; format: functional, organism-based, Hepacivirus hominis; conditions: genotype 1b, Huh-7, 72 h
Hepatitis C virus [4] = test: Inhibition of HCV1b NS5B delta21 polymerase assessed as incorporation of nucleotides into sshRNA template using [33P]-CTP after 15 mins by scintillation counting; set-up: species or system Hepatitis C virus subtype 1b; conditions: 0.25 h
Hepatitis C virus [5] = test: Antiviral activity against HCV1a infected in human Huh-7 cells after 3 days by renilla luciferase activity based replicon assay; format: functional, organism-based, Hepacivirus hominis; conditions: subtype 1a, Huh-7, 72 h
[6] = Lipophilicity, log D of the compound; format: physicochemical; conditions: octanol/water
[7] = Selectivity index, ratio of CC50 for human HuH7 cells to EC50 for HCV1b infected in human Huh-7 cells

Structure (SMILES) | Kd (Hepatitis C virus [1]) [nM] | CC50 at 72 h [2] [nM] | EC50 (Hepatitis C virus [3]) [nM] | IC50 (Hepatitis C virus [4]) [nM] | EC50 (Hepatitis C virus [5]) [nM] | logD [6] | Ratio CC50/EC50 [7]
CN([C@H]1CC[C@H](O)CC1)N(c1cc(C#CC(C)(C)C)sc1C(=O)O)C(=O)[C@H]1CC[C@H](C)CC1 | 8 | > 44000 | 34 | 307 |  |  | 
CC(C)N(c1cc(C#CC(C)(C)C)sc1C(=O)O)C(=O)[C@H]1CC[C@H](C)CC1 |  | > 44000 | 26 | 86 | 90 | 2 | 
CN(CCO)N(c1cc(C#CC(C)(C)C)sc1C(=O)O)C(=O)[C@H]1CC[C@H](C)CC1 | 10 | > 44000 | 32 | 52 |  |  | 
CN(C)N(c1cc(C#CC(C)(C)C)sc1C(=O)O)C(=O)[C@H]1CC[C@H](C)CC1 |  | > 44000 | 89 | 88 | 478 | 2.1 | >400
CN1CCC(N(C)N(c2cc(C#CC(C)(C)C)sc2C(=O)O)C(=O)[C@H]2CC[C@H](C)CC2)CC1 | 4 | > 44000 | 7 | 63 | 25 |  | 
CN(C1CCNCC1)N(c1cc(C#CC(C)(C)C)sc1C(=O)O)C(=O)[C@H]1CC[C@H](C)CC1 | 4 | > 44000 | 60 | 138 |  |  | 
CN(CC1CCOCC1)N(c1cc(C#CC(C)(C)C)sc1C(=O)O)C(=O)[C@H]1CC[C@H](C)CC1 | 10 | > 44000 | 47 | 509 |  |  | 
CN(c1ccncc1)N(c1cc(C#CC(C)(C)C)sc1C(=O)O)C(=O)[C@H]1CC[C@H](C)CC1 | 30 | 36000 | 3900 | 346 |  |  | 
